# Earlier results, collected in US20120064058A1, “COMPOSITIONS FOR PROTEIN-BASED DIETARY PRODUCTS” (ITALFARMACIA SRL, priority 2008, published 2012).
# How the values were obtained:
# [1] = compared with untreated diabetic rats
smiles,measurement,setting,value
NCC(=O)O [Glycine],expression of O-acetyl sialic acid in brain vessels,diabetic rats; [1],diminished expression
same,incidence of opacity in lens and microaneurysms in the eyes,diabetic rats; [1],reduced incidence
same,corporal weight loss,diabetic rats; in comparison with non-treated animals,less intense corporal weight loss
N=C(N)NCCC[C@H](N)C(=O)O [L-Arginine],excretion of orotic acid in the urine,rats,less excretion of orotic acid in the urine
same,kidney hypertrophy,rats; long-term consequence of a protein rich regimen,can prevent kidney hypertrophy
NCCS(=O)(=O)O [L-Taurine],renal functionality,diabetic rats,beneficial effects on renal functionality
